ChEMBL document CHEMBL1150977, “A quantitative analysis of kinase inhibitor selectivity” (Nat Biotechnol, 2008)

Experiments:
[1] = target: Serine/threonine-protein kinase 16 (Homo sapiens, UniProt O75716)
[2] = target: T1, Serine/threonine-protein kinase NLK (Homo sapiens, UniProt Q9UBE8)
T1 sequence (Q9UBE8 whole entry): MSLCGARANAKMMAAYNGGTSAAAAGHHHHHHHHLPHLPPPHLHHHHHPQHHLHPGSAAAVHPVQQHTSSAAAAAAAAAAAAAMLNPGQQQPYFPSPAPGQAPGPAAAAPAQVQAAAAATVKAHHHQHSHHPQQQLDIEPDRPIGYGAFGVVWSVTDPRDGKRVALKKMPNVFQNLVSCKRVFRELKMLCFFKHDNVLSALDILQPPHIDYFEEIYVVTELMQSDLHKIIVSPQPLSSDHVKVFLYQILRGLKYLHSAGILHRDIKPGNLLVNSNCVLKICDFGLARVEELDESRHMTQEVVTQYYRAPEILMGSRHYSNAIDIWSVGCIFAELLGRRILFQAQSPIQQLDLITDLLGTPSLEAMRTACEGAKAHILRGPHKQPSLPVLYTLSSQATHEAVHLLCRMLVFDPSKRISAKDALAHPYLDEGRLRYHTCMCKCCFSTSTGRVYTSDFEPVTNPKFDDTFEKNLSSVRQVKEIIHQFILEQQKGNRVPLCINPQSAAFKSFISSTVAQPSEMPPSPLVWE

[3] = target: BMP-2-inducible protein kinase (Homo sapiens, UniProt Q9NSY1)
Sequence of BMP-2-inducible protein kinase (Q9NSY1 whole entry): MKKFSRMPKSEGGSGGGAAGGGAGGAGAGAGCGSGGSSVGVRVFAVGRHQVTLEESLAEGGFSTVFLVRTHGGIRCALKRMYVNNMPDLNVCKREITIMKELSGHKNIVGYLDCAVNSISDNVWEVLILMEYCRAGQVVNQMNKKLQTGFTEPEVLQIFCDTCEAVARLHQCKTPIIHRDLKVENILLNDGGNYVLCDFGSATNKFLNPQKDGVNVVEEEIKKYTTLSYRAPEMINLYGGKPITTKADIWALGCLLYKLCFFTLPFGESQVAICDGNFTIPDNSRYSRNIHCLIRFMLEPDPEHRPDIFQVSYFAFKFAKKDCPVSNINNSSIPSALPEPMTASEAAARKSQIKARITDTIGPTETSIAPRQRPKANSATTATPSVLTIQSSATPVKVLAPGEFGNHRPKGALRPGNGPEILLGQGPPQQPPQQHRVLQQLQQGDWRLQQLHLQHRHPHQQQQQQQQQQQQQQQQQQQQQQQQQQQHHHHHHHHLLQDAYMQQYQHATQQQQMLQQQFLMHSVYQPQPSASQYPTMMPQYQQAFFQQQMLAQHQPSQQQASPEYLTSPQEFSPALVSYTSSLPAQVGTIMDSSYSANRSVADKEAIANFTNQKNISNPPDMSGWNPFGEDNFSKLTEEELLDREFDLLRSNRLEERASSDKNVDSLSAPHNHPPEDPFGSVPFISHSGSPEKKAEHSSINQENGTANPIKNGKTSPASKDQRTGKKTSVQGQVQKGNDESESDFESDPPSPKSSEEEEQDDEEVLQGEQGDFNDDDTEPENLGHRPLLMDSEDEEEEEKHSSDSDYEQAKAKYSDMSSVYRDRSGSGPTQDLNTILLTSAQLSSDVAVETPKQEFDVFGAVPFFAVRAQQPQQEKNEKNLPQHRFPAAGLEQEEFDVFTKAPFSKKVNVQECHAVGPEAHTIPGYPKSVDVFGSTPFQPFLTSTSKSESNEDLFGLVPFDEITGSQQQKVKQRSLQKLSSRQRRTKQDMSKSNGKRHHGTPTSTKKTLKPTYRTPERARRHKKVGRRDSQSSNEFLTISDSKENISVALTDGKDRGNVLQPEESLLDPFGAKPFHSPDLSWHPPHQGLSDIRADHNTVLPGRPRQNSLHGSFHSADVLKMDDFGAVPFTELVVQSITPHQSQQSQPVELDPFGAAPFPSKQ

[4] = target: Receptor-type tyrosine-protein kinase FLT3 (Homo sapiens, UniProt P36888, D835Y)
[5] = target: T2, 3-phosphoinositide-dependent protein kinase 1 (Homo sapiens, UniProt O15530)
T2 sequence (O15530 whole entry): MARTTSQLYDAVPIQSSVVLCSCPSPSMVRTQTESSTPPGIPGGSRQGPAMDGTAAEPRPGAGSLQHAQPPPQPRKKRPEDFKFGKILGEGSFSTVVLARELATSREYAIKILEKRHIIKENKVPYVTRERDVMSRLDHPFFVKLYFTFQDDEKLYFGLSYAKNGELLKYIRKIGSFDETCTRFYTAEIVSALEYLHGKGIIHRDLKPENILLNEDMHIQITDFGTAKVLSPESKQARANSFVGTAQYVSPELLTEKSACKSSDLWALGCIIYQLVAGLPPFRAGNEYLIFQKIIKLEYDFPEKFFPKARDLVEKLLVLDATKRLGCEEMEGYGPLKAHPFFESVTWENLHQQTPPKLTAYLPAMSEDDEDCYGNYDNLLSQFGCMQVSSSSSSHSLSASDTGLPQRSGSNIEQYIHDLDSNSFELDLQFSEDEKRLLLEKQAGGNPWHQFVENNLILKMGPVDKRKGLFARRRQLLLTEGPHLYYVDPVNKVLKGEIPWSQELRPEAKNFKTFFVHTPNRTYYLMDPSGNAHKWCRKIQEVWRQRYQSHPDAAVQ

[6] = target: Protein kinase C delta type (Homo sapiens, UniProt Q05655)
Sequence of Protein kinase C delta type (Q05655 whole entry): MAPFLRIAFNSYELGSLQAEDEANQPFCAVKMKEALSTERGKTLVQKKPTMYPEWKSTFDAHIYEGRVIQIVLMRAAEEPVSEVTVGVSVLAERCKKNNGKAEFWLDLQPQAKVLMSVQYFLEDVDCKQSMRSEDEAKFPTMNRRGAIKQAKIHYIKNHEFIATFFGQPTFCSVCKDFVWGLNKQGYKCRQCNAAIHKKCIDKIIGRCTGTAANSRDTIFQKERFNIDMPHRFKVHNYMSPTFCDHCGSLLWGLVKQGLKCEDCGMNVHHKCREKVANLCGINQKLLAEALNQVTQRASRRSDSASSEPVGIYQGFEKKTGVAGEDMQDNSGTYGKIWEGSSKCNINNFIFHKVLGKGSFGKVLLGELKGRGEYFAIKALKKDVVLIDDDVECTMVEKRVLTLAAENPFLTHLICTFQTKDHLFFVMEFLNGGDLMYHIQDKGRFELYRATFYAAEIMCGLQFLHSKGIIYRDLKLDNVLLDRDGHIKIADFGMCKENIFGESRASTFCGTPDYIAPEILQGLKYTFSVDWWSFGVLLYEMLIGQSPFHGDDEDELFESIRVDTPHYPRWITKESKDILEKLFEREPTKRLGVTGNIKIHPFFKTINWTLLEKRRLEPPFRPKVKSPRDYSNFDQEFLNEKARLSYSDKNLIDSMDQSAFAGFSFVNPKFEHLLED

[7] = target: T3, Serine/threonine-protein kinase 3 (Homo sapiens, UniProt Q13188)
T3 sequence (Q13188 whole entry): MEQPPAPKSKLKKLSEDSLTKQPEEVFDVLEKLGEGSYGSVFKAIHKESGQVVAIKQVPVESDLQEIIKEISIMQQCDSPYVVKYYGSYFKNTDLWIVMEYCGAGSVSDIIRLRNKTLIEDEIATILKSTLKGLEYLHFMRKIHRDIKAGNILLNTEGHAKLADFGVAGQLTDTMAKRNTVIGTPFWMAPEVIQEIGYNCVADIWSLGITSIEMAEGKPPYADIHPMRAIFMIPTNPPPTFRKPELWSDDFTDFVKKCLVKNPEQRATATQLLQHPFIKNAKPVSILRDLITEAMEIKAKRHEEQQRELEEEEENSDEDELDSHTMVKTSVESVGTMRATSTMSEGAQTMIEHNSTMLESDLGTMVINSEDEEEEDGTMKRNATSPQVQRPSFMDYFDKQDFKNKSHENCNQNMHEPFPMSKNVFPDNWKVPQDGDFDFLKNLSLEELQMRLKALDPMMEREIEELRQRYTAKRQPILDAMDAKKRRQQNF

Ephrin type-B receptor 4 = target: T4, Ephrin type-B receptor 4 (Homo sapiens, UniProt P54760)
T4 sequence (P54760 whole entry): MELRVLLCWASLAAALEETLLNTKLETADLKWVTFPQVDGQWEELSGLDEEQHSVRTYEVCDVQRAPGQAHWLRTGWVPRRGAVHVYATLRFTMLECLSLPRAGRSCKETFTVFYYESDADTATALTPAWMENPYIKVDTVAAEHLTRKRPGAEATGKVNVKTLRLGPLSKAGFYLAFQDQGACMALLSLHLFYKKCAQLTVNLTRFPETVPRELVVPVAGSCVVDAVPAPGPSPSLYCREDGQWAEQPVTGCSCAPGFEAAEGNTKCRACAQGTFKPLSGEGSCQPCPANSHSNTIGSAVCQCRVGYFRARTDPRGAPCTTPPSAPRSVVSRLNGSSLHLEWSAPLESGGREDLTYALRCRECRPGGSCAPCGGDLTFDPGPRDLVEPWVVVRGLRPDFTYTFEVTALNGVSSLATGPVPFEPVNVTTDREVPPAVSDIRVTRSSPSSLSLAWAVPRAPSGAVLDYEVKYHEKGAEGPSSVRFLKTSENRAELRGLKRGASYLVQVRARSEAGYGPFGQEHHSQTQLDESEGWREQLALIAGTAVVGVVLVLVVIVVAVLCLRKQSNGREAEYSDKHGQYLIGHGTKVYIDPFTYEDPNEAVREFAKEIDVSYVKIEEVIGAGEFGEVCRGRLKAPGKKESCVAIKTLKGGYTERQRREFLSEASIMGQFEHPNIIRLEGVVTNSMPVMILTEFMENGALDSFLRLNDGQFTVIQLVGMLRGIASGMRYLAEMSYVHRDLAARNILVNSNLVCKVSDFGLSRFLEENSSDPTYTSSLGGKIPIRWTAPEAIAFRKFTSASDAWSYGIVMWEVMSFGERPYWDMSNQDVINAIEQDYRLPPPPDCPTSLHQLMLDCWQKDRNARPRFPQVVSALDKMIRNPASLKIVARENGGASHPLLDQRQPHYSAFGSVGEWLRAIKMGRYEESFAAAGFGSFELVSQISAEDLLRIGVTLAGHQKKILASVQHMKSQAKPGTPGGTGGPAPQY

[8] = target: Proto-oncogene tyrosine-protein kinase receptor Ret (Homo sapiens, UniProt P07949)
Sequence of Proto-oncogene tyrosine-protein kinase receptor Ret (P07949 whole entry): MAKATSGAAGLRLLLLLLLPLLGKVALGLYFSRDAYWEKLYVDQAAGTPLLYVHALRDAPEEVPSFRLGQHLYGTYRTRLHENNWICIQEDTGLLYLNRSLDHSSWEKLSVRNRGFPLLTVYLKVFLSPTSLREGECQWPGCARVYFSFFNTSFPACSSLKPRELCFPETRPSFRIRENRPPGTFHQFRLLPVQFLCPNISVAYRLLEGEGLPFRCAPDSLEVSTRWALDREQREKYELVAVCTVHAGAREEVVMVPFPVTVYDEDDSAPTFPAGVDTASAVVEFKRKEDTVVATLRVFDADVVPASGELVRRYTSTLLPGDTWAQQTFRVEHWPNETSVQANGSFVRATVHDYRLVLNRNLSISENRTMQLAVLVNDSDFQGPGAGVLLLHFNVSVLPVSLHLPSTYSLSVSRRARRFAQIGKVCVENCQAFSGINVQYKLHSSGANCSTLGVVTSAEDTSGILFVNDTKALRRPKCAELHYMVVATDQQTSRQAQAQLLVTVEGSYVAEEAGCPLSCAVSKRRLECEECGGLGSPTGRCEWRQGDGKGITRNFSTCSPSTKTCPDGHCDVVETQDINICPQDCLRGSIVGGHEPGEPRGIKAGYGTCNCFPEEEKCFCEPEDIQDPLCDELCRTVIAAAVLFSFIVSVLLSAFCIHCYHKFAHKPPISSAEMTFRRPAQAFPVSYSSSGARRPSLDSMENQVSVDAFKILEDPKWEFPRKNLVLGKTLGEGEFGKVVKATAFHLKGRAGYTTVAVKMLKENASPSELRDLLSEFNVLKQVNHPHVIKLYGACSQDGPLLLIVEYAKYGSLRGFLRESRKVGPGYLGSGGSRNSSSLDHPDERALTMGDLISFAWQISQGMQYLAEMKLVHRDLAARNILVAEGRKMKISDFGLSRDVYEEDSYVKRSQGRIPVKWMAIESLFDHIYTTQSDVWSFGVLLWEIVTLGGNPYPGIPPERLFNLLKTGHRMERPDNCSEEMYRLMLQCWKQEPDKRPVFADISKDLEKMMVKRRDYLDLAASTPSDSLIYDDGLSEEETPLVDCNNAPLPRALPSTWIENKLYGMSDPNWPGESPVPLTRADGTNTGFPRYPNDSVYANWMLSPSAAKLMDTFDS

[9] = target: Mitogen-activated protein kinase 7 (Homo sapiens, UniProt Q13164)
Sequence of Mitogen-activated protein kinase 7 (Q13164 whole entry): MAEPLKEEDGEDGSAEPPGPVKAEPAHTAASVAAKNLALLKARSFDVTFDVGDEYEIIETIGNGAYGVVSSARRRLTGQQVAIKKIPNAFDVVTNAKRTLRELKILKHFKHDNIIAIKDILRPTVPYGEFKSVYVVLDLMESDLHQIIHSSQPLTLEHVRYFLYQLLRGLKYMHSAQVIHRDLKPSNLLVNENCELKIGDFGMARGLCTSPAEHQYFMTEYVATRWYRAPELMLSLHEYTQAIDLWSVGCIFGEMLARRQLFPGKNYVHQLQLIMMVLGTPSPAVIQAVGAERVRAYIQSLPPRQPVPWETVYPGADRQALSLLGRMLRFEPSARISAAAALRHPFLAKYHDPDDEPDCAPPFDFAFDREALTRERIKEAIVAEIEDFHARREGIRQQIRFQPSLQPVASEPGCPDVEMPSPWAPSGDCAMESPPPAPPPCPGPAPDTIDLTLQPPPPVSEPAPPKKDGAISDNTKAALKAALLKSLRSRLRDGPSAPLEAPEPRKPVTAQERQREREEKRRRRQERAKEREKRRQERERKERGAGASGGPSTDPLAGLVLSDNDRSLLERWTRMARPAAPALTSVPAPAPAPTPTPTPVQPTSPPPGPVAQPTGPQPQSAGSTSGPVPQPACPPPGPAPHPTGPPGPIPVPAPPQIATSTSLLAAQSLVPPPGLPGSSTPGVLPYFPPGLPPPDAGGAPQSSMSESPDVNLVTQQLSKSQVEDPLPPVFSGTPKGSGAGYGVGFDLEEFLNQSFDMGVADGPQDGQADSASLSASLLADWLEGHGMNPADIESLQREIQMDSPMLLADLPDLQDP

Sequence of Serine/threonine-protein kinase 16 (O75716 whole entry): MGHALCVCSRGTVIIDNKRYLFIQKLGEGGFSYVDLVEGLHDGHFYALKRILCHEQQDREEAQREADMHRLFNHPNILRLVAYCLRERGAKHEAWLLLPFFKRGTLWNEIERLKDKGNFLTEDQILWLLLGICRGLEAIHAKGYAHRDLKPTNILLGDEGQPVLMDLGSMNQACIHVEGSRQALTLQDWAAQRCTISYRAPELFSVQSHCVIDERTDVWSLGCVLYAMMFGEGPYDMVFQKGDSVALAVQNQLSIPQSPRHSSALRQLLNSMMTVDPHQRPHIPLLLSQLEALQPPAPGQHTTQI

Compound	Kd [1] [µM]	Kd [2] [µM]	Kd [3] [µM]	Kd [4] [µM]	Kd [5] [µM]	Kd [6] [µM]	Kd [7] [µM]	Kd (Ephrin type-B receptor 4) [µM]	Kd [8] [µM]	Kd [9] [µM]
COCC(=O)NC/C=C/c1ccc2ncnc(Nc3ccc(Oc4ccc(C)nc4)c(C)c3)c2c1 [CP-724714]	> 10	> 10	> 10	> 10	> 10	> 10	> 10	> 10	> 10	> 10
Nc1nc(Nc2ccc(S(N)(=O)=O)cc2)nn1C(=O)c1c(F)cccc1F [JNJ-7706621]	–	> 10	–	–	3.1	4.5	–	> 10	–	–
CCOc1cc2ncc(C#N)c(Nc3ccc(F)c(Cl)c3)c2cc1NC(=O)/C=C/CN(C)C [PELITINIB]	> 10	> 10	–	2.8	> 10	–	–	2.8	> 10	> 10
Oc1ccc(-c2nc(-c3ccncc3)c(-c3ccc(F)cc3)[nH]2)cc1 [SB-202190]	> 10	0.028	> 10	> 10	> 10	> 10	> 10	> 10	> 10	> 10
NC(=O)c1ccc(-c2nc(-c3ccc4c(c3)OCO4)c(-c3ccccn3)[nH]2)cc1 [SB-431542]	> 10	> 10	> 10	–	> 10	> 10	> 10	> 10	> 10	> 10
